Source: patent US20250345426A1, “METHODS FOR MAKING AND USING THERAPEUTIC CELLS” (THE REGENTS OF THE UNIVERSITY OF CALIFORNIA, priority 2022, published 2025)
“Also recorded” adds a separate entry of the source.

Test system: Leu16 CAR-T cells
Test: Antigen-independent activation and exhaustion marker expression by flow cytometry, Leu16 CAR-T cells
Assay type: cell-based, human
Settings: equivalent concentrations as for rituximab CAR-T cells
Text: FIG. 3A-G. Pharmacological modulation of Leu16 CAR-T cells modestly dampens tonic signaling while enhancing anti-tumor efficacy. (A) Pictorial representation of the correlation between tonic signaling-modulated rituximab CAR-T cells and in vivo anti-tumor efficacy. (B) Pictorial representation of pharmacological modulation strategy aimed to either increase or decrease Leu16 CAR tonic signaling; c-MYC (MYCi975) and SREBP (betulin) inhibition increased tonic signaling whereas mTORC1 (rapamycin) inhibition decreased tonic signaling in rituximab CAR-T cells. (C) % distribution of T-cell subtypes in CAR^+ T cells after 6 days of pharmacological modulation (left) and Tn/scm enrichment (right). […] (F) Tumor signal (in photons/sec/cm2/sr) in individual animals as quantified by bioluminescence imaging. […]
Antibody staining for flow-cytometry analysis. EGFRt expression was measured with biotinylated cetuximab (Eli Lilly; biotinylated in-house), followed by PE-conjugated streptavidin (Jackson ImmunoResearch #016-110-084). CAR expression was quantified by surface epitope staining using anti-Fc (Alexa Fluor 488, Jackson ImmunoResearch #709-546-098). […] T-cell subtype of CAR-T cells was evaluated by antibody staining for CD45RO (VioBlue®, clone REA611, Miltenyi #130-119-620) and CD62L (APC, clone DREG56, Invitrogen #17-0629-42) after 5-6 days of inhibitor culture (FIG. 1, FIG. 3). […]

## C=C(C)[C@@H]1CC[C@]2(CO)CC[C@]3(C)[C@H](CC[C@@H]4[C@@]5(C)CC[C@H](O)C(C)(C)[C@@H]5CC[C@]43C)[C@@H]12 [betulin, Betulin]
  tonic signaling: dampened; also recorded: significant decrease

## MYCi975
  tonic signaling: dampened
